From publication PMC8699473, “An Easily Expandable Multi-Drug LC-MS Assay for the Simultaneous Quantification of 57 Oral Antitumor Drugs in Human Plasma” (Cancers, 2021)

Assay: Long-term stability in spiked pooled human plasma

SMILES | Long-term stability, 1 month, -20°C Accuracy [%] (validation standard 2xLLOV) | Long-term stability, 1 month, -80°C Accuracy [%] (validation standard 2xLLOV) | Long-term stability, 2 month, -20°C Accuracy [%] (validation standard 2xLLOV) | Long-term stability, 2 month, -80°C Accuracy [%] (validation standard 2xLLOV) | Long-term stability, 3 month, -20°C Accuracy [%] (validation standard 2xLLOV) | Long-term stability, 3 month, -80°C Accuracy [%] (validation standard 2xLLOV) | Long-term stability, 6 weeks, 4°C, without daylight Accuracy [%] (validation standard 2xLLOV) | Long-term stability, 1 month, -20°C Accuracy [%] (validation standard LLOV) | Long-term stability, 1 month, -80°C Accuracy [%] (validation standard LLOV) | Long-term stability, 2 month, -20°C Accuracy [%] (validation standard LLOV) | Long-term stability, 2 month, -80°C Accuracy [%] (validation standard LLOV) | Long-term stability, 3 month, -20°C Accuracy [%] (validation standard LLOV) | Long-term stability, 3 month, -80°C Accuracy [%] (validation standard LLOV) | Long-term stability, 6 weeks, 4°C, without daylight Accuracy [%] (validation standard LLOV) | Long-term stability, 1 month, -20°C Accuracy [%] (validation standard MOV) | Long-term stability, 1 month, -80°C Accuracy [%] (validation standard MOV) | Long-term stability, 2 month, -20°C Accuracy [%] (validation standard MOV) | Long-term stability, 2 month, -80°C Accuracy [%] (validation standard MOV) | Long-term stability, 3 month, -20°C Accuracy [%] (validation standard MOV) | Long-term stability, 3 month, -80°C Accuracy [%] (validation standard MOV) | further results
CCC1=C[C@@H]2CN(C1)Cc1c([nH]c3ccccc13)[C@@](C(=O)OC)(c1cc3c(cc1OC)N(C)[C@H]1[C@@](O)(C(=O)OC)[C@H](OC(C)=O)[C@]4(CC)C=CCN5CC[C@]31[C@@H]54)C2 [Vinorelbine] | 97.3 | 110.2 | 108.5 | 94.1 | 98.4 | 97.8 | 75.3 | 118.3 | 110.0 | 98.1 | 109.4 | 101.7 | 118.7 | 85.9 | 90.2 | 88.9 | 89.2 | 92.4 | 98.2 | 93.5 | Long-term stability, 6 weeks, 4°C, without daylight Accuracy [%] (validation standard MOV): 73.1%; Long-term stability, 1 month, -20°C Accuracy [%] (validation standard ULOV): 90.4%; Long-term stability, 1 month, -80°C Accuracy [%] (validation standard ULOV): 92.0%; Long-term stability, 2 month, -20°C Accuracy [%] (validation standard ULOV): 87.6%; Long-term stability, 2 month, -80°C Accuracy [%] (validation standard ULOV): 99.6%; Long-term stability, 3 month, -20°C Accuracy [%] (validation standard ULOV): 92.2%; Long-term stability, 3 month, -80°C Accuracy [%] (validation standard ULOV): 98.1%; Long-term stability, 6 weeks, 4°C, without daylight Accuracy [%] (validation standard ULOV): 56.9%
CS(=O)(=O)c1ccc(C(=O)Nc2ccc(Cl)c(-c3ccccn3)c2)c(Cl)c1 [Vismodegib] | 105.4 | 99.5 | 106.5 | 104.3 | 100.1 | 99.6 | 107.5 | 92.5 | 88.6 | 94.1 | 96.9 | 84.3 | 84.4 | 96.6 | 97.8 | 97.9 | 103.0 | 103.7 | 101.3 | 100.9 | Long-term stability, 6 weeks, 4°C, without daylight Accuracy [%] (validation standard MOV): 109.8%; Long-term stability, 1 month, -20°C Accuracy [%] (validation standard ULOV): 90.5%; Long-term stability, 1 month, -80°C Accuracy [%] (validation standard ULOV): 87.8%; Long-term stability, 2 month, -20°C Accuracy [%] (validation standard ULOV): 94.5%; Long-term stability, 2 month, -80°C Accuracy [%] (validation standard ULOV): 95.1%; Long-term stability, 3 month, -20°C Accuracy [%] (validation standard ULOV): 94.9%; Long-term stability, 3 month, -80°C Accuracy [%] (validation standard ULOV): 93.4%; Long-term stability, 6 weeks, 4°C, without daylight Accuracy [%] (validation standard ULOV): 96.5%
